Measurements taken from paper PMC7445967, “The Potential of Atractylodin-Loaded PLGA Nanoparticles as Chemotherapeutic for Cholangiocarcinoma” (Asian Pacific Journal of Cancer Prevention : APJCP, 2020).
Converted amounts (≈) assume the structure as drawn. Where two headings read alike, the source gives them in different places.

How the values were obtained:
[1] = tested on: OUMS-36T-1F normal fibroblast cell line; assay: MTT cytotoxicity assay, OUMS-36T-1F; details: for Cell viability: highest concentration (atractylodin 125 µg/mL, ALNPs-1 6,000 µg/mL), range
Description: (§1) Human cholangiocarcinoma (CCA) cell lines, CL-6 and HuCC-T1, and normal fibroblast cell line, OUMS-36T-1F, were used for cytotoxicity assay. CL-6 and HuCC-T1 cell lines were cultured in RPMI medium and OUMS-36T-1F cell line was cultured in DMEM medium. Both culture media were prepared as complete medium supplemented with 10% (v/v) FBS and 1% antibiotic-antimycotic solution (100 IU/mL). All cell cultures were maintained at 37°C under 5% CO2 atmosphere and 95% humidity ([…] 150i, Thermo scientific, MA, USA).
(§2) For cytotoxicity assay, the CCA and normal cell lines were exposed to various concentrations of ALNPs-1 (47-6,000 µg/mL, 100 µL each), blank NPs-1 (47-6,000 µg/mL, 100 µL each), atractylodin (1-125 µg/mL), 5-FU (positive control, 1-125 µg/mL), or serum-free medium (negative control) in a 96-well plate. Briefly, 8,000 cells (in 100 µL complete medium) were seeded into each well and pre-incubated at 37°C under 5% CO2 for 24 h. Viability of each cell following exposure to ALNPs-1, blank NPs-1, atractylodin, and 5-FU was determined by MTT assay at 24, 48, and 72 h of exposure (Chittasupho et al., 2017). Absorbance of cell suspension was measured at 550 nm using UV Absorbance Reader (Vario skan flash, Thermo Fisher scientific, MA, USA). Cell viability was calculated using the Equation (4):
(§3) Cell viability %=Absorbance of cell treated with sample/absorbance of negative control cells×100
(§4) IC50 (concentration that inhibits cell growth by 50%) of each compound in each cell line was determined using Graphpad Prism version 7.04 (GraphPad Software, CA, USA). Selectivity index (SI) was determined from the ratio of IC50 of ALNPs-1, atractylodin, or 5-FU in normal cell and CCA cell.

[2] = tested on: HuCC-T1 cholangiocarcinoma cell line; assay: MTT cytotoxicity assay, HuCC-T1; details: for Cell viability: highest concentration (atractylodin 125 µg/mL, ALNPs-1 6,000 µg/mL), range
Description: as §1, §2, §3, §4

[3] = tested on: CL-6 cholangiocarcinoma cell line; assay: MTT cytotoxicity assay, CL-6; details: for Cell viability: highest concentration (atractylodin 125 µg/mL, ALNPs-1 6,000 µg/mL), range
Description: as §1, §2, §3, §4

[4] = cited from earlier work
[5] = ratio of IC50 in normal cell (OUMS-36T-1F) and HuCC-T1, 24 hours
[6] = ratio of IC50 in normal cell (OUMS-36T-1F) and HuCC-T1, 48 hours
[7] = ratio of IC50 in normal cell (OUMS-36T-1F) and HuCC-T1, 72 hours
[8] = ratio of IC50 in normal cell (OUMS-36T-1F) and CL-6, 24 hours
[9] = ratio of IC50 in normal cell (OUMS-36T-1F) and CL-6, 48 hours
[10] = ratio of IC50 in normal cell (OUMS-36T-1F) and CL-6, 72 hours

O=c1[nH]cc(F)c(=O)[nH]1 [5-FU, 5-fluorouracil]
IC50 ([1]; Homo sapiens, Fibroblast, 24 h): 133 µg/mL (≈ 1020 µM) | IC50 ([1]; Homo sapiens, Fibroblast, 48 h): 49.8 µg/mL (≈ 383 µM) | IC50 ([1]; Homo sapiens, Fibroblast, 72 h): 30.8 µg/mL (≈ 237 µM) | IC50 ([2]; Homo sapiens, HuCCT-1, 24 h): 38.9 µg/mL (≈ 299 µM) | IC50 ([2]; Homo sapiens, HuCCT-1, 48 h): 25.9 µg/mL (≈ 199 µM) | IC50 ([2]; Homo sapiens, HuCCT-1, 72 h): 8.2 µg/mL (≈ 63 µM) | Selectivity index (SI) [2, 5]: 3.41 | Selectivity index (SI) [2, 6]: 1.92 | Selectivity index (SI) [2, 7]: 3.75 | IC50 ([3]; Homo sapiens, 24 h): 77.4 µg/mL (≈ 595 µM) | IC50 ([3]; Homo sapiens, 48 h): 38.8 µg/mL (≈ 299 µM) | IC50 ([3]; Homo sapiens, 72 h): 3.46 µg/mL (≈ 26.6 µM) | Selectivity index (SI) [3, 8]: 1.71 | Selectivity index (SI) [3, 9]: 1.28 | Selectivity index (SI) [3, 10]: 8.90

C/C=C/C#CC#C/C=C/c1ccco1 [Atractylodin]
Concentrations producing cytotoxic effect against normal cells ([1]; OUMS-36-1F normal cells): 62.5 to 125 µg/mL | IC50 ([1]; OUMS-36T-1F, 24 h exposure, MTT): 84.33 µg/mL (≈ 463 µM) | Cell viability ([1]; OUMS-36T-1F, 24 hours): 39.61-41.50% | IC50 ([1]; OUMS-36T-1F, 48 h exposure, MTT): 58.16 µg/mL (≈ 319 µM) | Cell viability ([1]; OUMS-36T-1F, 48 hours): 14.88-15.37% | IC50 ([1]; OUMS-36T-1F, 72 h exposure, MTT): 69.03 µg/mL (≈ 379 µM) | Cell viability ([1]; OUMS-36T-1F, 72 hours): 6.61-7.92% | Solubility in water ([4]; free atractylodin, ref TGSC Information System, 2019): 7.541 µg/mL (≈ 41.4 µM) | Solubility in water ([4]; soluble in organic solvents such as ethyl acetate, DMSO, acetone, ref ChemFaces, 2018): insoluble in water | IC50 ([2]; HuCC-T1, 24 h exposure, MTT): 53.66 µg/mL (≈ 294 µM) | Cell viability ([2]; HuCC-T1, 24 hours): 23.72-30.39% | IC50 ([2]; HuCC-T1, 48 h exposure, MTT): 59.74 µg/mL (≈ 328 µM) | Cell viability ([2]; HuCC-T1, 48 hours): 16.18-17.18% | IC50 ([2]; HuCC-T1, 72 h exposure, MTT): 76.15 µg/mL (≈ 418 µM) | Cell viability ([2]; HuCC-T1, 72 hours): 16.43-20.57% | Selectivity index (SI) [2, 5]: 1.57 | Selectivity index (SI) [2, 6]: 0.97 | Selectivity index (SI) [2, 7]: 0.91 | IC50 ([3]; CL-6, 24 h exposure, MTT): 56.36 µg/mL (≈ 309 µM) | Cell viability ([3]; CL-6, 24 hours): 24.38-33.56% | IC50 ([3]; CL-6, 48 h exposure, MTT): 37.66 µg/mL (≈ 207 µM) | Cell viability ([3]; CL-6, 48 hours): 9.71-13.89% | IC50 ([3]; CL-6, 72 h exposure, MTT): 52.02 µg/mL (≈ 285 µM) | Cell viability ([3]; CL-6, 72 hours): 9.12-10.27% | Selectivity index (SI) [3, 8]: 1.50 | Selectivity index (SI) [3, 9]: 1.54 | Selectivity index (SI) [3, 10]: 1.33
